Results reported in ChEMBL document CHEMBL1201862, “PubChem BioAssay data set” (2004).
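Cells were grown in 96-well plates and exposed to each compound for 48 hours at five concentrations; endpoints were interpolated linearly between bracketing concentrations, or set to the highest concentration if not reached. GI50 is the concentration that inhibits growth by half.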 Calls of active or inactive are those of the source. Rule as the data show it: active = GI50 up to about 1.1 µM and inactive = higher.

Assays:
Experiment in all cases: DTP human tumour cell line panel, 48 h
786-0 = test system: 786-0
A498 = test system: A498
A549 = test system: A549
ACHN = test system: ACHN
BT-549 = test system: BT-549
CAKI-1 = test system: CAKI-1
CCRF-CEM = test system: CCRF-CEM
COLO 205 = test system: COLO 205
DU-145 = test system: DU-145
EKVX = test system: EKVX
HCC 2998 = test system: HCC 2998
HCT-116 = test system: HCT-116
HCT-15 = test system: HCT-15
HL-60 = test system: HL-60
HOP-62 = test system: HOP-62
HOP-92 = test system: HOP-92
HT-29 = test system: HT-29
Hs-578T = test system: Hs-578T
IGROV-1 = test system: IGROV-1
K562 = test system: K562
KM12 = test system: KM12
LOX IMVI = test system: LOX IMVI
M14 = test system: M14
MCF7 = test system: MCF7
MDA-MB-231 = test system: MDA-MB-231
MDA-MB-435 = test system: MDA-MB-435
MDA-N = test system: MDA-N
MOLT-4 = test system: MOLT-4
Malme-3M = test system: Malme-3M
NCI-H226 = test system: NCI-H226
NCI-H23 = test system: NCI-H23
NCI-H460 = test system: NCI-H460
NCI-H522 = test system: NCI-H522
NCI/ADR-RES = test system: NCI/ADR-RES
OVCAR-3 = test system: OVCAR-3
OVCAR-4 = test system: OVCAR-4
OVCAR-5 = test system: OVCAR-5
OVCAR-8 = test system: OVCAR-8
PC-3 = test system: PC-3
RPMI-8226 = test system: RPMI-8226
RXF 393 = test system: RXF 393
SF-268 = test system: SF-268
SF-295 = test system: SF-295
SF-539 = test system: SF-539
SK-MEL-28 = test system: SK-MEL-28
SK-MEL-2 = test system: SK-MEL-2
SK-MEL-5 = test system: SK-MEL-5
SK-OV-3 = test system: SK-OV-3
SN12C = test system: SN12C
SNB-19 = test system: SNB-19
SNB-75 = test system: SNB-75
SR = test system: SR
SW-620 = test system: SW-620
T47D = test system: T47D
TK-10 = test system: TK-10
UACC-257 = test system: UACC-257
UACC-62 = test system: UACC-62
UO-31 = test system: UO-31

CCOc1cc(NC(C)=O)ccc1C(=O)NN1C(=O)C(Cl)C1c1ccccc1 (stereo not drawn)
GI50 (786-0): 14.6 µM (inactive) | GI50 (A498): 17.4 µM (inactive) | GI50 (A549): 16.5 µM (inactive) | GI50 (ACHN): 16.2 µM (inactive) | GI50 (BT-549): 11.4 µM (inactive) | GI50 (CAKI-1): 15.4 µM (inactive) | GI50 (CCRF-CEM): 2.67 µM (inactive) | GI50 (COLO 205): 14.2 µM (inactive) | GI50 (DU-145): 17.6 µM (inactive) | GI50 (EKVX): 14.9 µM (inactive) | GI50 (HCC 2998): 17.4 µM (inactive) | GI50 (HCT-116): 17.5 µM (inactive) | GI50 (HCT-15): 16.1 µM | GI50 (HL-60): 14.1 µM (inactive) | GI50 (HOP-62): 20.5 µM (inactive) | GI50 (HOP-92): 12.9 µM (inactive) | GI50 (HT-29): 16.6 µM (inactive) | GI50 (Hs-578T): 21.2 µM (inactive) | GI50 (IGROV-1): 3.92 µM (inactive) | GI50 (K562): 5.32 µM (inactive) | GI50 (KM12): 17.3 µM (inactive) | GI50 (LOX IMVI): 1.37 µM (inactive) | GI50 (M14): 12.4 µM (inactive) | GI50 (MCF7): 7.74 µM (inactive) | GI50 (MDA-MB-231): 13.2 µM (inactive) | GI50 (MDA-MB-435): 11.5 µM (inactive) | GI50 (MDA-N): 13.8 µM (inactive) | GI50 (MOLT-4): 3.68 µM (inactive) | GI50 (Malme-3M): 11.2 µM (inactive) | GI50 (NCI-H226): 12.7 µM (inactive) | GI50 (NCI-H23): 14.3 µM (inactive) | GI50 (NCI-H460): 16 µM (inactive) | GI50 (NCI-H522): 2.24 µM (inactive) | GI50 (NCI/ADR-RES): 25.1 µM (inactive) | GI50 (OVCAR-3): 14.7 µM (inactive) | GI50 (OVCAR-4): 13.5 µM (inactive) | GI50 (OVCAR-5): 17.4 µM (inactive) | GI50 (OVCAR-8): 20.9 µM (inactive) | GI50 (PC-3): 14 µM (inactive) | GI50 (RPMI-8226): 9.95 µM (inactive) | GI50 (RXF 393): 13.6 µM (inactive) | GI50 (SF-268): 16.7 µM (inactive) | GI50 (SF-295): 20.4 µM (inactive) | GI50 (SF-539): 10.9 µM (inactive) | GI50 (SK-MEL-28): 16.9 µM (inactive) | GI50 (SK-MEL-2): 14.3 µM (inactive) | GI50 (SK-MEL-5): 10.1 µM (inactive) | GI50 (SK-OV-3): 16.9 µM (inactive) | GI50 (SN12C): 13.9 µM (inactive) | GI50 (SNB-19): 15.1 µM (inactive) | GI50 (SNB-75): 15.6 µM (inactive) | GI50 (SR): 4.34 µM (inactive) | GI50 (SW-620): 12.4 µM (inactive) | GI50 (T47D): 12.5 µM (inactive) | GI50 (TK-10): 16.6 µM (inactive) | GI50 (UACC-257): 11.9 µM (inactive) | GI50 (UACC-62): 11 µM (inactive) | GI50 (UO-31): 3.31 µM (inactive)
